ChEMBL document CHEMBL3616426 (Eur J Med Chem, 2015)
Active and inactive are the calls of the source. No cut-off for these calls is given here.

Experiments:
Rattus norvegicus [1] = test: Antiosteoporotic activity in ovariectomized Sprague-Dawley rat assessed as trabecular thickness recovery at 10 ug/kg, po qd measured at 18th week by micro-CT analysis relative to SHAM control; assay type: functional, Trabecula
Rattus norvegicus [2] = test: Antiosteoporotic activity in ovariectomized Sprague-Dawley rat assessed as trabecular separation at 1 ug/kg, po qd at 18th week by micro-CT analysis (reference value: 0.234 +/- 0.021 millimeter); assay type: functional, Trabecula
Rattus norvegicus [3] = test: Antiosteoporotic activity in ovariectomized Sprague-Dawley rat assessed as bone volume /tissue volume at 1 ug/kg, po qd at 12th week by micro-CT analysis (reference value: 31.61 +/- 2.39%); assay type: functional
[4] = molecular target: T1, Estrogen receptor (Homo sapiens) (UniProt P03372); test: Antagonist activity at ERalpha (301 to 553 amino acid residues) (unknown origin) assessed as inhibition of E2 induced interaction with SRC1 after 24 hrs by yeast-two-hybrid assay; set-up: concentration or dose not given beside the values
T1 sequence (whole entry): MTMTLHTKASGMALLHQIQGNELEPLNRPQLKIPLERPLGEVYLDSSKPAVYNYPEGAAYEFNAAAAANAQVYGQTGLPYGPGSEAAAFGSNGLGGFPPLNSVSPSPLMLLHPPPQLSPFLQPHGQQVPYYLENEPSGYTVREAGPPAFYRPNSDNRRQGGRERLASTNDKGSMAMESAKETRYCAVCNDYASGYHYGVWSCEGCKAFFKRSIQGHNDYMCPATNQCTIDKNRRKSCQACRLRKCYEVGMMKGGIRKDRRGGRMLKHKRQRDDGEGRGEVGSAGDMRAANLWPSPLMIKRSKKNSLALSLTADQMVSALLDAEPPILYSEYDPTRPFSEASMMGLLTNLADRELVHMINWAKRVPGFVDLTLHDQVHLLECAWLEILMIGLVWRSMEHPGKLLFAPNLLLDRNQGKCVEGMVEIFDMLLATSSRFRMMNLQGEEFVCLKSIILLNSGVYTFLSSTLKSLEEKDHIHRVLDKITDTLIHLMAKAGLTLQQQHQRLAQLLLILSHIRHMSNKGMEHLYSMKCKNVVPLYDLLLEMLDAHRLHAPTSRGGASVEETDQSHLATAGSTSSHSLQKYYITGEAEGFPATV

Rattus norvegicus [5] = test: Antiosteoporotic activity in ovariectomized Sprague-Dawley rat assessed as bone volume /tissue volume at 3 ug/kg, po qd at 18th week by micro-CT analysis (reference value: 27.36 +/- 1.99%); assay type: functional
Rattus norvegicus [6] = test: Antiosteoporotic activity in ovariectomized Sprague-Dawley rat assessed as serum osteocalcin level at 1 ug/kg, po qd at 18th week by enzyme immunoassay (reference value: 1118.9 +/- 37.77 ng/ml); assay type: functional
Rattus norvegicus [7] = test: Antiosteoporotic activity in ovariectomized Sprague-Dawley rat assessed as trabecular separation at 3 ug/kg, po qd at 18th week by micro-CT analysis (reference value: 0.234 +/- 0.021 millimeter); assay type: functional, Trabecula
Rattus norvegicus [8] = test: Antiosteoporotic activity in ovariectomized Sprague-Dawley rat assessed as trabecular separation at 1 ug/kg, po qd at 12th week by micro-CT analysis (reference value: 0.146 +/- 0.010 millimeter); assay type: functional, Trabecula
Rattus norvegicus [9] = test: Antiosteoporotic activity in ovariectomized Sprague-Dawley rat assessed as trabecular separation at 10 ug/kg, po qd at 6th week by micro-CT analysis (reference value: 0.116 +/- 0.010 millimeter); assay type: functional, Trabecula
Rattus norvegicus [10] = test: Antiosteoporotic activity in ovariectomized Sprague-Dawley rat assessed as trabecular separation at 10 ug/kg, po qd at 12th week by micro-CT analysis (reference value: 0.146 +/- 0.010 millimeter); assay type: functional, Trabecula
Rattus norvegicus [11] = test: Antiosteoporotic activity in ovariectomized Sprague-Dawley rat assessed as serum osteocalcin level at 3 ug/kg, po qd at 12th week by enzyme immunoassay (reference value: 1055.8 +/- 14 ng/ml); assay type: functional
Rattus norvegicus [12] = test: Antiosteoporotic activity in ovariectomized Sprague-Dawley rat assessed as trabecular thickness at 1 ug/kg, po qd at 18th week by micro-CT analysis (reference value: 0.103 +/- 0.0044 millimeter); assay type: functional, Trabecula
Rattus norvegicus [13] = test: Antiosteoporotic activity in ovariectomized Sprague-Dawley rat assessed as trabecular thickness at 3 ug/kg, po qd at 12th week by micro-CT analysis (reference value: 0.070 +/- 0.0063 millimeter); assay type: functional, Trabecula
Rattus norvegicus [14] = test: Antiosteoporotic activity in ovariectomized Sprague-Dawley rat assessed as decrease in serum osteocalcin level at 3 ug/kg, po qd at 18th week by enzyme immunoassay relative to SHAM control; assay type: functional, organism-based
Rattus norvegicus [15] = test: Antiosteoporotic activity in ovariectomized Sprague-Dawley rat assessed as bone volume /tissue volume at 3 ug/kg, po qd at 6th week by micro-CT analysis (reference value: 41.33 +/- 5.04%); assay type: functional
Rattus norvegicus [16] = test: Antiosteoporotic activity in ovariectomized Sprague-Dawley rat assessed as bone volume /tissue volume at 10 ug/kg, po qd at 6th week by micro-CT analysis (reference value: 41.33 +/- 5.04%); assay type: functional
Rattus norvegicus [17] = test: Antiosteoporotic activity in ovariectomized Sprague-Dawley rat assessed as serum osteocalcin level at 1 ug/kg, po qd at 12th week by enzyme immunoassay (reference value: 1055.8 +/- 14 ng/ml); assay type: functional
Rattus norvegicus [18] = test: Antiosteoporotic activity in ovariectomized Sprague-Dawley rat assessed as trabecular separation at 3 ug/kg, po qd at 6th week by micro-CT analysis (reference value: 0.116 +/- 0.010 millimeter); assay type: functional, Trabecula
Rattus norvegicus [19] = test: Antiosteoporotic activity in ovariectomized Sprague-Dawley rat assessed as bone volume /tissue volume at 3 ug/kg, po qd at 12th week by micro-CT analysis (reference value: 31.61 +/- 2.39%); assay type: functional
Rattus norvegicus [20] = test: Antiosteoporotic activity in ovariectomized Sprague-Dawley rat assessed as bone mineral density recovery at 10 ug/kg, po qd measured at 18th week by micro-CT analysis relative to SHAM control; assay type: functional
Rattus norvegicus [21] = test: Antiosteoporotic activity in ovariectomized Sprague-Dawley rat assessed as trabecular separation at 3 ug/kg, po qd at 12th week by micro-CT analysis (reference value: 0.146 +/- 0.010 millimeter); assay type: functional, Trabecula
Rattus norvegicus [22] = test: Antiosteoporotic activity in ovariectomized Sprague-Dawley rat assessed as trabecular thickness at 10 ug/kg, po qd at 12th week by micro-CT analysis (reference value: 0.070 +/- 0.0063 millimeter); assay type: functional, Trabecula
Rattus norvegicus [23] = test: Antiosteoporotic activity in ovariectomized Sprague-Dawley rat assessed as serum osteocalcin level at 10 ug/kg, po qd at 18th week by enzyme immunoassay (reference value: 1118.9 +/- 37.77 ng/ml); assay type: functional
Rattus norvegicus [24] = test: Antiosteoporotic activity in ovariectomized Sprague-Dawley rat assessed as bone volume /tissue volume at 10 ug/kg, po qd at 12th week by micro-CT analysis (reference value: 31.61 +/- 2.39%); assay type: functional
Rattus norvegicus [25] = test: Antiosteoporotic activity in ovariectomized Sprague-Dawley rat assessed as trabecular separation at 10 ug/kg, po qd at 18th week by micro-CT analysis (reference value: 0.234 +/- 0.021 millimeter); assay type: functional, Trabecula

Molecule `O=C1c2cc(O)cc(O)c2[C@@H](c2ccc(O)cc2)[C@@H]1c1cc(O)cc(O)c1` [ISOPAUCIFLORAL F] has an Activity (Rattus norvegicus [1]) of 78%, an Activity (Rattus norvegicus [2]) of 0.183 mm and an Activity (Rattus norvegicus [3]) of 31.46%. It also gave an Activity [4] of 9.45%, an Activity (Rattus norvegicus [5]) of 36.45% and an Activity (Rattus norvegicus [6]) of 812.1 ng/mL. For the same molecule, the Activity (Rattus norvegicus [7]) was 0.183 mm, the Activity (Rattus norvegicus [8]) was 0.18 mm and the Activity (Rattus norvegicus [9]) was 0.118 mm. For the same molecule, the Activity (Rattus norvegicus [10]) was 0.138 mm, the Activity (Rattus norvegicus [11]) was 1109.6 ng/mL and the Activity (Rattus norvegicus [12]) was 0.106 mm. The Activity (Rattus norvegicus [13]) was 0.085 mm, the Activity (Rattus norvegicus [14]) was “Active” and the Activity (Rattus norvegicus [15]) was 52.56%. The Activity (Rattus norvegicus [16]) was 40.25%, the Activity (Rattus norvegicus [17]) was 1172.9 ng/mL and the Activity (Rattus norvegicus [18]) was 0.097 mm. It also gave an Activity (Rattus norvegicus [19]) of 41.01%, an Activity (Rattus norvegicus [20]) of 90% and an Activity (Rattus norvegicus [21]) of 0.173 mm. It also gave an Activity (Rattus norvegicus [22]) of 0.087 mm, an Activity (Rattus norvegicus [23]) of 702.2 ng/mL and an Activity (Rattus norvegicus [24]) of 38.43%. For the same molecule, the Activity (Rattus norvegicus [25]) was 0.096 mm.
